Experimental data: patent publication US9999859B2, “Immobilized multi-layer artificial membrane for permeability measurements (PAMPA)” (CORNING INCORPORATED, priority 2005, dated 2018)
Where two headings read alike, the source gives them in different places.

Columns and labels:
[1] = cited from earlier work
[2] = PAMPA permeability with subject invention membrane; assay type: in vitro ADME; conditions: for Papp at 5 h: PAMPA; for measured permeability with 10% methanol, 90% PBS as working buffer: 90% PBS versus PBS, FIG. 8
Procedure: FIGS. 5-9 present various data relating to the subject invention. […] Then the filter plate 34 was coupled with the receiver plate 42 and the assembly was incubated in a humidity chamber without agitation at room temperature (except for a data set in FIG. 9, where the assembly was incubated in a humidity chamber without agitation at 37° C.) for 5 hours. At the end of the incubation, the plates 34, 42 were separated and 150 μL solution from each well 36, 44 of both the filter plate 34 and the receiver plate 42 was transferred to UV-transparent plates. The final concentrations of compounds in both donor wells and acceptor wells were analyzed by UV-plate reader. […] Where: • C0=initial compound concentration in donor well (mM) • CD (t)=compound concentration in donor well at time t. (mM) • CA (t)=compound concentration in acceptor well at time t.

[3] = human oral absorption; cited from earlier work
[4] = prior art PAMPA membrane, PBS pH 7.4, room temperature, no agitation
[5] = PBS pH 7.4, room temperature, no agitation, 5 hours, read-out: Pe Subject Invention Membrane Results

SMILES | Papp at 5 h [2, 5] [×10⁻⁶ cm/s] | Pe Prior Art Results [1, 4] | Human Absorption [3] [%] | further results
Cc1cc(=O)n(-c2ccccc2)n1C [antipyrine] |  | 0.74 10^−6 cm/s |  | PAMPA permeability values found by the prior art ([1]; PAMPA): low
Cn1c(=O)c2c(ncn2C)n(C)c1=O [caffeine] |  |  |  | PAMPA permeability values found by the prior art ([1]; in words): low
NS(=O)(=O)c1cc2c(cc1Cl)NCNS2(=O)=O [hydrochlorothiazide] | 0.09 | 0.02 10^−6 cm/s |  | 
NC(N)=Nc1nc(CSCCC(N)=NS(N)(=O)=O)cs1 [famotidine] | 0.04 | 0.06 10^−6 cm/s | 40 | 
O=C1NC(=O)C(c2ccccc2)(c2ccccc2)N1 [phenytoin] | 5.73 | 0.38 10^−6 cm/s |  | PAMPA permeability values found by the prior art ([1]; in words): low
N=C(N)NC(=O)c1nc(Cl)c(N)nc1N [amiloride] | 0.08 | 0.00 10^−6 cm/s | 50 | 
NC(=O)N1c2ccccc2C=Cc2ccccc21 [carbamazepine] | 7.79 | 6.4 10^−6 cm/s | 100 | 
Cn1c(=O)c2[nH]cnc2n(C)c1=O [theophyline] |  |  |  | Pe Prior Art Results ([1]; PAMPA, pH 7.4): 0.04 10^−6 cm/s
CC(C)(C)c1ccc(C(O)CCCN2CCC(C(O)(c3ccccc3)c3ccccc3)CC2)cc1 (stereo not drawn) [terfenadine] |  |  |  | measured permeability with 10% methanol, 90% PBS as working buffer [2]: can be measured
O=C(O)Cc1ccccc1Nc1c(Cl)cccc1Cl [diclofenac] | 6.3 |  |  | 
CNC(=C[N+](=O)[O-])NCCSCc1ccc(CN(C)C)o1 [ranitidine] |  |  | 61 | Pe Subject Invention Membrane Results ([2]; PBS pH 7.4, room temperature, no agitation, 5 hours): 0.45 10^−6 cm/s
CN1C(C(=O)Nc2ccccn2)=C(O)c2ccccc2S1(=O)=O [piroxicam] | 4.02 | 2.64 10^−6 cm/s | 100 | 
Clc1ccc(COC(Cn2ccnc2)c2ccc(Cl)cc2Cl)c(Cl)c1 (stereo not drawn) [miconazole] |  |  |  | measured permeability with 10% methanol, 90% PBS as working buffer [2]: can be measured
O=C(O)c1cc(/N=N/c2ccc(S(=O)(=O)Nc3ccccn3)cc2)ccc1O [sulphasalazine] | 0.16 | 0.00 10^−6 cm/s | 13 | 
CC(C(=O)O)c1cccc(C(=O)c2ccccc2)c1 (stereo not drawn) [ketoprofen] | 3.1 |  |  | PAMPA permeability values found by the prior art ([1]; in words): low
COc1ccc2c(c1)c(CC(=O)O)c(C)n2C(=O)c1ccc(Cl)cc1 [indomethacin] | 6.24 |  |  | 
Clc1cccc(Cl)c1N=C1NCCN1 [clonidine] | 4.92 | 1.5 10^−6 cm/s | 100 | 
CC(=O)CC(c1ccccc1)c1c(O)c2ccccc2oc1=O (stereo not drawn) [warfarin] |  |  |  | Papp at 5 h ([2]; pH 7.4): 5.28 ×10⁻⁶ cm/s

More lines, main results first:

Papp at 5 h [2, 5] [×10⁻⁶ cm/s] | SMILES | Pe Prior Art Results [1, 4] | Human Absorption [3] [%] | further results
0.1 | Nc1nc2c(ncn2COCCO)c(=O)[nH]1 [acyclovir] |  |  | 
0.46 | CC(C)(C)NCC(O)c1cc(O)cc(O)c1 (stereo not drawn) [terbutaline] | 0.05 10^−6 cm/s | 60 | 
2.64 | CC(C)NCC(O)COc1cccc2[nH]ccc12 (stereo not drawn) [pindolol] |  |  | 
0.18 | CCN1CCCC1CNC(=O)c1cc(S(N)(=O)=O)ccc1OC (stereo not drawn) [sulpiride] |  |  | 
0.16 | CC(C)(C)NCC(O)COc1cccc2c1CC(O)C(O)C2 (stereo not drawn) [nadolol] | 0.28 10^−6 cm/s | 30 | 
4.45 | CC(C)(C)NC[C@H](O)COc1nsnc1N1CCOCC1 [timolol] | 0.61 10^−6 cm/s |  | PAMPA permeability values found by the prior art ([1]; in words): low
4.39 | CC(C)Cc1ccc(C(C)C(=O)O)cc1 (stereo not drawn) [ibuprofen] | 2.4 10^−6 cm/s |  | 
4.29 | COCCc1ccc(OCC(O)CNC(C)C)cc1 (stereo not drawn) [metoprolol] |  |  | PAMPA permeability values found by the prior art ([1]; in words): low
0.21 | CCCC(=O)Nc1ccc(OCC(O)CNC(C)C)c(C(C)=O)c1 (stereo not drawn) [acebutolol] |  | 50 | 
